Values joined by “and” are separate entries in the source; they are usually repeats but may differ in a detail not shown here. Equal entries are not always repeated.
Assays:
[1] = tested on: standard panel of macromolecular targets; assay: Eurofins SafetyScreen44 off-target panel (enzyme and radioligand-binding assays); conditions: 30 µM
Source text: To increase specificity for the lysyl oxidase family, the design of PXS-5505 (Supplementary Data 1–3) was based upon substrate analog fluoroallylamines. Variants of fluoroallylamines have previously been used in amine oxidase inhibitors, including those targeting LOXL2 and LOXL3 (ref. [31]). […] Importantly, PXS-5505 not only maintains the potent functional inhibition of LOXL2 but linkage to a quinoline moiety improves potency for all other lysyl oxidase family members and is key to the superiority of PXS-5505 (Fig. 2a). PXS-5505 is the free base of the active principle, which is suitably isolated as a dihydrochloride salt.

[2] = 2D cell viability assay (MTS); type: cell-based, mouse; conditions: mouse, replicates
Method: (§1) The 2D cell viability assays were performed using KPC CAFs and CCs seeded at (250 CAFs per well) and (500 CCs per well) in a 96-well plate. MTS solution (Promega) was added to the cells at a 1:20 dilution and cells were incubated at 37 °C for 2 h. Cell proliferation rates were measured by detecting the absorbance at 490 nm using a microplate reader. Three biological repeats were performed.
(§2) Data presented as mean values +/− SD. f. […] Data presented as mean values +/− SD. […] Data presented as mean values +/− SD. […] Data presented as mean values +/− SD. Ordinary one-way ANOVA for multiple comparison test performed. Source data

KPC CAFs = assay: 2D cell viability assay (MTS); type: cell-based, mouse; conditions: for 2D cell viability (MTS assay): CAFs, replicates
Method: as §1, §2

KPC CCs = assay: 2D cell viability assay (MTS); type: cell-based, mouse; conditions: for 2D cell viability (MTS assay): Cancer cells, replicates
Method: as §1, §2

CD8 = assay: Immunohistochemistry of end-point KPC tumors: T-cell infiltration; type: in vivo, mouse; conditions: KPC tumours at endpoint; individual replicate values (Extended Data 6I)
Method: All tissues or matrices, including patient TMAs, were fixed in 10% buffered formalin and embedded in paraffin. The 4-μm sections of samples were deparaffinized with xylene and rehydrated in graded ethanol washes. For immunohistochemistry, Bond Dewax Solution (AR9222) was used. Antigen retrieval was performed using Bond RX H2(30) protocol: HIER 30 min ER1 (citrate pH 6) OR ER2 (EDTA pH 9) at 100 °C. Slides were quenched in BOND Polymer Refine Detection (Leica Biosystems DS9800). […] Slides were digitized on an Aperio slide scanner and representative areas per tumor acquired and analyzed by researchers blinded to the conditions of the experiment.
Extended Data Fig. 6 PXS-5505 in combination with gemcitabine in a KPC model. a. Quantification of proliferating cells (Ki67 positive nuclear staining) in KPC tumors at end point, treated as indicated. 5 fields of view (500 μm × 500 μm) per mouse and 10 mice per cohort were scored. […] Quantification of percent coverage of αSMA positive staining in KPC tumors at end point, treated as indicated. 3 fields of view (1000 μm × 1000 μm) per mouse and 10 mice per cohort were scored. […] Quantification of percent coverage of PDGFR-ß positive staining in KPC tumors at end point, treated as indicated. 3 fields of view (1000 μm × 1000 μm) per mouse and 10 mice per cohort were scored. […] 3 fields of view (500 μm × 500 μm) per mouse and 10 mice per cohort were scored. […]

With Cl.Cl.NC/C=C(\F)CS(=O)(=O)c1cccc2cccnc12.O [PXS-5505, (Z)-3-fluoro-4-(quinolin-8-ylsulfonyl)but-2-en-1-amine dihydrochloride monohydrate] the “off-target activity against a standard panel of macromolecular targets” value [1] was “does not show any significant off-target activity”, the viability ([2]; KPC CAFs (2D culture), CAFs, PXS-5505 0.3 (unit inferred)) was 100% and the viability ([2]; KPC CAFs (2D culture), CAFs, PXS-5505 3 (unit inferred)) was 94.8%. It also gave a viability ([2]; KPC CAFs (2D culture), CAFs, PXS-5505 30 (unit inferred)) of 101%, a viability ([2]; KPC CAFs (2D culture), CAFs, PXS-5505 100 (unit inferred)) of 89.7% and a viability ([2]; KPC CAFs (2D culture), CAFs, PXS-5505 300 (unit inferred)) of 92.6%. It also gave a viability ([2]; KPC cancer cells (CCs, 2D culture), Cancer cells, PXS-5505 0.3 (unit inferred)) of 100%, a viability ([2]; KPC cancer cells (CCs, 2D culture), Cancer cells, PXS-5505 3 (unit inferred)) of 109% and a viability ([2]; KPC cancer cells (CCs, 2D culture), Cancer cells, PXS-5505 30 (unit inferred)) of 110%. The viability ([2]; KPC cancer cells (CCs, 2D culture), Cancer cells, PXS-5505 100 (unit inferred)) was 102%, the viability ([2]; KPC cancer cells (CCs, 2D culture), Cancer cells, PXS-5505 300 (unit inferred)) was 98.8% and the “2D cell viability (MTS assay)” value (KPC CAFs; PXS-5505 0.3 (unit not given)) was 89.24 and 85.85. For the same compound, the “2D cell viability (MTS assay)” value (KPC CAFs; PXS-5505 3 (unit not given)) was 104.51 and 107.51, the “2D cell viability (MTS assay)” value (KPC CAFs; PXS-5505 30 (unit not given)) was 111.18 and 108.48 and the “2D cell viability (MTS assay)” value (KPC CAFs; PXS-5505 100 (unit not given)) was 94.55 and 103.25. For the same compound, the “2D cell viability (MTS assay)” value (KPC CAFs; PXS-5505 300 (unit not given)) was 90.49 and 84.11, the “effect on proliferation, 2D” value (KPC CAFs; KPC CAFs, up to 300 µM) was “nor did it show any effect on proliferation” and the “2D cell viability (MTS assay)” value (KPC CCs; PXS-5505 0.3 (unit not given)) was 100 and 109.75. The “2D cell viability (MTS assay)” value (KPC CCs; PXS-5505 3 (unit not given)) was 110.09 and 116.21, the “2D cell viability (MTS assay)” value (KPC CCs; PXS-5505 30 (unit not given)) was 104.54 and 100.45 and the “2D cell viability (MTS assay)” value (KPC CCs; PXS-5505 100 (unit not given)) was 94.9 and 85.15. The “2D cell viability (MTS assay)” value (KPC CCs; PXS-5505 300 (unit not given)) was 94.9 and 96.71, the “effect on proliferation, 2D” value (KPC CCs; KPC CCs, up to 300 µM) was “nor did it show any effect on proliferation” and the “T-cell infiltration (CD8 positive staining)” value (CD8) was 7 and 5.

Reference: PMC10518255, “A first-in-class pan-lysyl oxidase inhibitor impairs stromal remodeling and enhances gemcitabine response and survival in pancreatic cancer” (Nature Cancer, 2023)
